This note sets out measurements from patent US11618747B2, “LXR modulators with bicyclic core moiety” (OrsoBio, Inc., priority 2018, dated 2023).

Data set [1] in a line: Pharmacokinetics in mice after single oral dosing (blood/plasma and liver exposure). In kind it is in vivo, mice (C57/bl6/J). On the procedure: The pharmacokinetics of the compounds was assessed in mice after single dosing and oral administrations. Blood/plasma and liver exposure was measured via LC-MS.
The study design was as follows:
Animals: C57/bl6/J (Janvier) males
Diet: standard rodent chow
Animal handling: animals were withdrawn from food at least 12 h before administration
Design: single dose oral administration, n=3 animals per group
Sacrifice: at stated time point (4, 12 or 24 h) after administration
Bioanalytics: LC-MS of liver and blood/plasma samples

The target of data set [2] is T1, LXRβ ligand-binding domain (Homo sapiens, UniProt P55055, DUP175-175).
T1 construct: amino acids 156-461; NP009052; made in house; host or cells: E. coli
T1 sequence (P55055 with tags, fused parts or gaps DUP175-175 limits assumed): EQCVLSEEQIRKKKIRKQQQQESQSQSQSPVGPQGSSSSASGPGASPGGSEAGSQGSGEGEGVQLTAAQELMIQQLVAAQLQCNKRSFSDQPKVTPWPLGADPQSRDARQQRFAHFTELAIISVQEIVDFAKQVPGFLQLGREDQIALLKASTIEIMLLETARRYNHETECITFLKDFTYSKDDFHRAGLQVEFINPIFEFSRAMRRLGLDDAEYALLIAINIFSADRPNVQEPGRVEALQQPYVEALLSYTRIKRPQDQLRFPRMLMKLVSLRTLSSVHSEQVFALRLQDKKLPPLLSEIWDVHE
Put plainly: TR-FRETβ activity assay (NCoA3 coactivator peptide recruitment). It is filed as biochemical. To be noted: TR-FRET, 1 μM 24(S)-25-epoxycholesterol prestimulation; read-out: FRETβ (EC50 range). The method, boiled down: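 Inverse agonism assessed by loss of coactivator recruitment, read as TR-FRET 665/615 nm after 1 h equilibration at 4 °C, in triplicate. Ten-point titration from 50 μM to 0.002 μM against LXRβ LBD (76 nM, GST fusion) prestimulated with 1 μM 24(S)-25-epoxycholesterol, with 400 nM NCoA3 peptide, pH 6.8. Sulfonyl acetic acids kept as 20 mM DMSO stocks with 100 mM TFA.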

In data set [3] the target is T2, ligand-binding domain (LBD) of LXRα (Homo sapiens, UniProt Q13133).
T2 construct: expressed in transfected cells; host or cells: HEK293
T2 sequence (Q13133 155-447): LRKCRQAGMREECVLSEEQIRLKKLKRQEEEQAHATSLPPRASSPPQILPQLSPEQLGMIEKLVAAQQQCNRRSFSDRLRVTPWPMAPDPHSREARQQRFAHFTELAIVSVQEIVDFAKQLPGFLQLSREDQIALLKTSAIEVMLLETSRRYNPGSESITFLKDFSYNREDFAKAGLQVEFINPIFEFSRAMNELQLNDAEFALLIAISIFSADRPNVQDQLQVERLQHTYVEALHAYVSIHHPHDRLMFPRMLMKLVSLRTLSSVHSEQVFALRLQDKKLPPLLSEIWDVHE
Put plainly: LXR Gal4 reporter transient transfection assay (LBD-M2H Gal4α). In kind it is cell-based. To be noted: HEK293 cells, LXRα LBD; read-out: LBD-M2H Gal4α (EC50 range). The procedure: (§1) The tested compounds were usually dissolved, tested and stored as 20 mM stock solutions in DMSO. Since sulfonyl acetic acid derivatives tend to decarboxylate under these conditions, these stock solutions were prepared, tested and stored as 20 mM DMSO stock solutions containing 100 mM trifluoroacetic Acid (5 equivalents). Sulfonyl acetic acid derivatives are shelf stable as solid at rt for long time as reported by Griesbrecht et al. (Synlett 2010:374) or Faucher et al. (J. Med. Chem. 2004; 47:18).
(§2) LXR Gal4 Reporter Transient Transfection Assays
(§3) LXRα and LXRβ activity status was determined via detection of interaction with coactivator and corepressor proteins in mammalian two-hybrid experiments (M2H). For this, via transient transfection the full length (FL) proteins of LXRα (amino acids 1-447; NP005684; SEQ ID NO:1) or LXRβ-(amino acids 1-461; NP009052; SEQ ID NO:2) or the ligand-binding domains (LBD) of LXRα (amino acids 155-447 SEQ ID NO:3) or LXRβ (amino acids 156-461; SEQ ID NO:4) were expressed from pCMV-AD (Stratagene) as fusions to the transcriptional activation domain of NFkB. As cofactors, domains of either the steroid receptor coactivator 1 (SRC1; amino acids 552-887; SEQ ID NO:5) or of the corepressor NCoR (amino acids 1906-2312; NP006302; SEQ ID NO:6) were expressed as fusions to the DNA binding domain of the yeast transcription factor GAL4 (from pCMV-BD; Stratagene). Interaction was monitored via activation of a coexpressed Firefly Luciferase Reporter gene under control of a promoter containing repetitive GAL4 response elements (vector pFRLuc; Stratagene). Transfection efficiency was controlled via cotransfection of constitutively active pRL-CMV Renila reniformis luciferase reporter (Promega). HEK293 cells were grown in minimum essential medium (MEM) with 2 mM L-glutamine and Earle's balanced salt solution supplemented with 8.3% fetal bovine serum, 0.1 mM non-essential amino acids, 1 mM sodium pyruvate, at 37° C. in 5% CO2. 3.5×10^4 cells/well were plated in 96-well cell culture plates in growth medium supplemented with 8.3% fetal bovine serum for 16-20 h to ˜90% confluency. For transfection, medium was taken off and LXR and cofactor expressing plasmids as well as the reporter plasmids are added in 30 μL OPTIMEM/well including polyethylene-imine (PEI) as vehicle. Typical amounts of plasmids transfected/well: pCMV-AD-LXR (5 ng), pCMV-BD-cofactor (5 ng), pFR-Luc (100 ng), pRL-CMV (0.5 ng). Compound stocks were prepared in DMSO, prediluted in MEM to a total volume of 120 μL, and added 4 h after addition of the transfection mixture (final vehicle concentration not exceeding 0.2%). Cells were incubated for additional 16 h, lysed for 10 min in 1× Passive Lysis Buffer (Promega) and Firefly and Renilla luciferase activities were measured sequentially in the same cell extract using buffers containing D-luciferine and coelenterazine, respectively. Measurements of luminescence were done in a BMG-luminometer.

Data set [4] has as its target T3, ligand-binding domain (LBD) of LXRβ (Homo sapiens, UniProt P55055, DUP175-175).
T3 construct: LXRβ (amino acids 156-461); expressed in transfected cells; host or cells: HEK293
T3 sequence (P55055 with tags, fused parts or gaps DUP175-175 limits assumed): T1 sequence (P55055 with tags, fused parts or gaps DUP175-175 limits assumed)
Put plainly: LXR Gal4 reporter transient transfection assay (LBD-M2H Gal4β). It is filed as cell-based. To be noted: HEK293 cells, LXRβ LBD; read-out: LBD-M2H Gal4β (EC50 range). On the procedure: as §1, §2, §3

The EC50 is the midpoint of the concentration-response curve.

On to `CCOC(=O)c1ccc(CN(Cc2ccc(-c3cccc(S(C)(=O)=O)c3)cc2)S(=O)(=O)c2c(C)cc(C)cc2C)o1` [SR9238, reference compound], for which the “blood/plasma exposure (below LLOQ, LLOQ value not given)” value in data set [1] (20 mg/kg single oral dose, time point 4 h) is on record as “LLOQ”. In addition, the “oral bioavailability (in words)” value in data set [1] (oral administration) is listed as “not orally bioavailable”.
Regarding `Cc1cc(C)c(S(=O)(=O)n2c(-c3cccs3)c(-c3ccsc3C#N)c3ccccc32)c(C)c1` [1/26], the EC50 in data set [2] is 1000 to 10000 nM; in data set [3] it was 100 to 1000 nM; in data set [4], less than 100 nM.
Take `Cc1ccc(S(=O)(=O)n2c(-c3cc(C4CC4C(=O)O)cs3)c(-c3ccsc3C#N)c3ccccc32)cc1` (centres unmarked) [3/17]: the EC50 in data set [2] is 1000 to 10000 nM; in data set [3] it was 100 to 1000 nM; in data set [4] it was less than 100 nM.
For `N#Cc1sccc1-c1c(-c2cccs2)n(S(=O)(=O)c2ccc(Cl)cc2)c2ccc(OCCCC(=O)O)cc12` [15/1], in that order: 1000 to 10000 nM, 100 to 1000 nM and 100 to 1000 nM.
For `N#Cc1sccc1-c1c(-c2cccs2)n(S(=O)(=O)C2CCCCC2)c2ccccc12` [Example 24, 3-(1-(Cyclohexylsulfonyl)-2-(thiophen-2-yl)-1H-indol-3-yl)thiophene-2-carbonitrile] the same measures were 1000 to 10000 nM, 100 to 1000 nM and less than 100 nM.
For `COc1ccc2c(-c3ccsc3C#N)c(-c3cccs3)n(S(=O)(=O)c3ccc(Cl)cc3)c2c1` [1/40] the same measures were 1000 to 10000 nM, 100 to 1000 nM and less than 100 nM.
Take `Cc1ccc(S(=O)(=O)n2c(-c3cccc(C(C)(C)C(=O)O)c3)c(-c3ccsc3C#N)c3ccccc32)cc1` [3/20]: the concentration giving a half-maximal response (EC50) is 1000 to 10000 nM in data set [2], 100 to 1000 nM in data set [3] and less than 100 nM in data set [4].
In the case of `Cc1ccc(S(=O)(=O)n2c(-c3ccc(/C=C/C(=O)O)s3)c(-c3ccsc3C#N)c3ccccc32)cc1` [3/19], the EC50 in data set [2] was in the range of 1000 to 10000 nM; in data set [3], 100 to 1000 nM; in data set [4] it was 100 to 1000 nM.
`Cc1ccc(S(=O)(=O)n2c(-c3ccc(CC(C)(C)C(=O)O)s3)c(-c3ccsc3C#N)c3ccccc32)cc1` [3/16]: the concentration giving a half-maximal response (EC50) in data set [2] was 1000 to 10000 nM; in data set [3] it was 100 to 1000 nM; in data set [4], 100 to 1000 nM.
For the molecule `N#Cc1sccc1-c1c(-c2cccc(N3CCC(C(=O)O)C3)c2)n(S(=O)(=O)c2ccc(Cl)cc2)c2ccccc12` (centres unmarked) [30/11], the EC50 in data set [2] is 100 to 1000 nM; in data set [3], 100 to 1000 nM; in data set [4], less than 100 nM.
Take `N#Cc1sccc1-c1c(-c2cccs2)n(S(=O)(=O)c2ccc(Cl)cc2)c2ccc(OCCCCC(=O)O)cc12` [15/2]: the figures for the EC50 in data set [2], in data set [3] and in data set [4] were greater than 10000 nM, 100 to 1000 nM and 100 to 1000 nM, respectively.
On to `COc1ccc(S(=O)(=O)n2c(-c3ccccc3)c(-c3cc(C)sc3C#N)c3ccccc32)cc1` [20/23], for which the figures for the half-maximal effective concentration (EC50) in data set [2], in data set [3] and in data set [4] were 1000 to 10000 nM, 100 to 1000 nM and 100 to 1000 nM, respectively.
With `Cc1ccc(S(=O)(=O)n2c(-c3cccc(C4CC4C(=O)O)c3)c(-c3ccc(F)cc3C#N)c3ccccc32)cc1` (centres unmarked) [30/15], the values for the EC50 in data set [2], in data set [3] and in data set [4] were 1000 to 10000 nM, 100 to 1000 nM and 100 to 1000 nM, respectively.
As for `Cc1ccc(S(=O)(=O)n2c(-c3cccc(-c4cccc(C(=O)O)c4)c3)c(-c3ccsc3C#N)c3ccccc32)cc1` [30/1], the concentration for a half-maximal effect (EC50) was 100 to 1000 nM in data set [2], 100 to 1000 nM in data set [3] and less than 100 nM in data set [4].
Turning to `N#Cc1sccc1-c1c(-c2cccs2)n(S(=O)(=O)c2ccc(F)cc2)c2ccccc12` [20/11], the concentration giving a half-maximal response (EC50) in data set [2] is 100 to 1000 nM; in data set [3], less than 100 nM; in data set [4] it was less than 100 nM.
As for `N#Cc1sccc1-c1c(-c2cccc(OCCC(=O)O)n2)n(S(=O)(=O)c2ccc(Cl)cc2)c2ccccc12` [Example 31, 3-((6-(1-((4-Chlorophenyl)sulfonyl)-3-(2-cyanothiophen-3-yl)-1H-indol-2-yl)pyridin-2-yl)oxy)propanoic Acid], the EC50 in data set [2] lay within 1000 to 10000 nM; in data set [3], 100 to 1000 nM; in data set [4], 100 to 1000 nM.
On to `Cc1ccc(S(=O)(=O)n2c(-c3cccc(-c4cccc(C(C)(C)C(=O)O)c4)c3)c(-c3ccsc3C#N)c3ccccc32)cc1` [30/2], for which the EC50 in data set [2] fell in the range of 1000 to 10000 nM; in data set [3], 100 to 1000 nM; in data set [4], 100 to 1000 nM.
In the case of `N#Cc1sccc1-c1c(-c2ccc(C3CC3C(=O)O)s2)n(S(=O)(=O)c2ccc(Cl)cc2)c2ccccc12` (centres unmarked) [30/8], the values for the EC50 in data set [2], in data set [3] and in data set [4] were 1000 to 10000 nM, 100 to 1000 nM and 100 to 1000 nM, respectively.
For the molecule `Cc1ccc(S(=O)(=O)n2c(-c3cccc(C4CC4C(=O)O)c3)c(-c3ccsc3F)c3ccccc32)cc1` (centres unmarked) [30/14], the results for the concentration giving a half-maximal response (EC50) in data set [2], in data set [3] and in data set [4] were 1000 to 10000 nM, 100 to 1000 nM and 100 to 1000 nM, respectively.
In the case of `N#Cc1ccc(OCC(=O)O)cc1-c1c(-c2cccs2)n(S(=O)(=O)c2ccc(Cl)cc2)c2ccccc12` [21/1], the EC50 in data set [2], in data set [3] and in data set [4] was 1000 to 10000 nM each time.
